Experiments:
Type in all cases: cell-based
c-MET (total form) [1] = assay: Target protein degradation assay (Western blot); conditions: H1437 cells, standard concentration and time 5 μM, 72 hours
Method: Cells (H596 or H1437 cells) were seeded in Φ60 or Φ100 culture dishes to reach 5×10^5 or 1×10^6 cells, and then cultured for more than 12 hours. […] The cells were then harvested, lysed using RIPA buffer, and centrifuged (4° C., 13000 rpm, 15 min), to collect the supernatant in a new tube. Protein quantification was performed using the Bradford Assay, and samples were prepared for loading by boiling at 95° C. Western blotting was performed. The samples were loaded onto an SDS polyacrylamide gel (8% concentration). Electrophoresis was conducted at 80V, and then switched to 100-120V (when the loaded sample moves from the stacking gel to the running gel). After electrophoresis, the polyacrylamide gel was transferred onto the membrane (using transfer buffer diluted at 10× transfer buffer:methanol:D.W=1:2:7 ratio, cold, for 100V, 1 hour or 80V, 2 hours). The membrane was blocked with 5% skim milk for 30 minutes and washed with PBS-T (phosphate-buffered saline with Tween 20) buffer. The primary antibody was diluted in 5% BSA+NaN3 solution and reacted with the membrane for over 12 hours, followed by washing with PBS-T and reaction with 5% skim milk+secondary antibody for 1 hour and 30 minutes. After washing with PBS-T, the ECL solution was reacted with the membrane, and the bands were detected using an imaging device to confirm the degradation of the target protein c-MET.

c-MET (total form) [2] = assay: Target protein degradation assay (Western blot); conditions: for c-MET degradation H596: H596 cells, Western blot, standard concentration and time 5 μM, 72 hours; for degradation of the target MET protein: H596 or H1437 cells, summary of Table 3
Method: This experiment assessed the tendency and extent of degradation of the target protein c-MET (total form) in cells treated with each of the compounds prepared in Examples 1 to 11.
Cells (H596 or H1437 cells) were seeded in Φ60 or Φ100 culture dishes to reach 5×10^5 or 1×10^6 cells, and then cultured for more than 12 hours. After removing the media, the cells were treated with each respective compound prepared in Examples 1 to 11 at various conditions-concentrations (0, 2.5, 5, 10 μM), time (0, 6, 8, 24, 48, 72 hours), and standard concentration and time (5 μM, 72 hours) for all compounds. The cells were then harvested, lysed using RIPA buffer, and centrifuged (4° C., 13000 rpm, 15 min), to collect the supernatant in a new tube. Protein quantification was performed using the Bradford Assay, and samples were prepared for loading by boiling at 95° C. Western blotting was performed. The samples were loaded onto an SDS polyacrylamide gel (8% concentration). Electrophoresis was conducted at 80V, and then switched to 100-120V (when the loaded sample moves from the stacking gel to the running gel). After electrophoresis, the polyacrylamide gel was transferred onto the membrane (using transfer buffer diluted at 10× transfer buffer:methanol:D.W=1:2:7 ratio, cold, for 100V, 1 hour or 80V, 2 hours). The membrane was blocked with 5% skim milk for 30 minutes and washed with PBS-T (phosphate-buffered saline with Tween 20) buffer. The primary antibody was diluted in 5% BSA+NaN3 solution and reacted with the membrane for over 12 hours, followed by washing with PBS-T and reaction with 5% skim milk+secondary antibody for 1 hour and 30 minutes. After washing with PBS-T, the ECL solution was reacted with the membrane, and the bands were detected using an imaging device to confirm the degradation of the target protein c-MET.

H596 cells = assay: Cell viability assay (CCK8); conditions: three days treatment
Method: (§1) This experiment involves treating cells with each of the compounds prepared in Examples 1 to 11, and then observing changes in cell cytotoxicity and cell count. The IC50 values, derived from the changes in cell count, can be used to assess the cancer cell growth inhibition and anti-cancer effects of the compound of the present invention.
(§2) Cells (H596 or H1437 cells) were seeded in a 96-well plate at 3×10^3 cells per well and then cultured for more than 12 hours. After removing the media, each well was treated with 200 μl of the respective diluted compounds prepared in Examples 1 to 11. Three days later, the media was removed, and each well was treated with 10 μl of CCK8 reagent+90 μl of media. After 3-4 hours of reaction, the absorbance was measured using an ELISA reader at a wavelength of 450 nm.

H1437 cells = assay: Cell viability assay (CCK8); conditions: three days treatment
Method: as §1, §2

| Molecule | c-MET degradation H1437 (c-MET (total form) [1]) | c-MET degradation H596 (c-MET (total form) [2]) | IC50 (H596 cells) [µM] | IC50 (H1437 cells) [µM] | IC50 (H596 cells; Homo sapiens, NCI-H596, 72 h) [µM] | IC50 (H1437 cells; Homo sapiens, NCI-H1437, 72 h) [µM] | degradation of the target MET protein (c-MET (total form) [2]) |
| --- | --- | --- | --- | --- | --- | --- | --- |
| 2,4-dihydroxy-N-({4-[(5-{4-[3-(1-{imidazole[1,2-a]pyridin-6-yl}ethyl)-[1,2,3]triazolo[4,5-b]pyrazin-5-yl]pyrazol-1-yl}-5-oxopentyl) carbamoyl]phenyl}methyl)-5-isopropyl-N-methylbenzamide [OZD-MET 05] | 2 (10% < degradation < 50%: 2) | 2 (10% < degradation < 50%: 2) | 4.72 | 5.71 | – | – | – |
| CC(C)c1cc(C(=O)N(C)Cc2cccc(C(=O)NCCOCCOC(=O)N3CCC(n4cc(-c5cnc(N)c(O[C@@H](C)c6c(Cl)ccc(F)c6Cl)c5)cn4)CC3)c2)c(O)cc1O (stereo in doubt) [OZD-MET 01, 2-{2-[(3-{[1-(2,4-dihydroxy-5-isopropylphenyl)-N-methylformamido]methyl}phenyl)formamido]ethoxy}ethyl 4-(4-{6-amino-5-[1-(2,6-dichloro-3-fluorophenyl)ethoxy]pyridin-3-yl}pyrazol-1-yl)piperidine-1-carboxylate] | 1 (50% < degradation: 1) | 1 (50% < degradation: 1) | – | – | 3.07 | 3.5 | – |
| CC(C)c1cc(C(=O)N(C)Cc2ccc(C(=O)NCCCCC(=O)N3CCC(n4cc(-c5cnc(N)c(O[C@@H](C)c6c(Cl)ccc(F)c6Cl)c5)cn4)CC3)cc2)c(O)cc1O (stereo in doubt) [OZD-MET 03, N-{[4-({5-[4-(4-{6-amino-5-[1-(2,6-dichloro-3-fluorophenyl)ethoxy]pyridine-3-yl}pyrazol-1-yl)piperidin-1-yl]-5-oxopentyl}carbamoyl)phenyl]methyl}-2,4-dihydroxy-5-isopropyl-N-methylbenzamide] | 1 (50% < degradation: 1) | 1 (50% < degradation: 1) | – | – | 1.97 | 2.64 | – |
| CC(C)c1cc(C(=O)N(C)Cc2cccc(C(=O)O)c2)c(O)cc1O [Compound (d), reference compound] | No degradation | No degradation | – | – | – | – | no degradation |
| CC(C)c1cc(C(=O)N(C)Cc2ccc(C(=O)O)cc2)c(O)cc1O [Compound (i), reference compound] | No degradation | No degradation | – | – | – | – | no degradation |
| C[C@@H](Oc1cc(-c2cnn(C3CCNCC3)c2)cnc1N)c1c(Cl)ccc(F)c1Cl [Crizotinib, reference compound] | – | No degradation | – | – | 20.3 | 31.9 | no degradation |
| CC(C)c1cc(C(=O)N(C)Cc2ccc(C(=O)NCCOCCOC(=O)N3CCC(n4cc(-c5cnc(N)c(O[C@@H](C)c6c(Cl)ccc(F)c6Cl)c5)cn4)CC3)cc2)c(O)cc1O [OZD-MET 02] | 1 (50% < degradation: 1) | 1 (50% < degradation: 1) | – | – | 2.59 | 4.06 | – |
| CC(C)c1cc(C(=O)N(C)Cc2cccc(C(=O)NCCOCCOC(=O)n3cc(-c4cnc5nnn([C@@H](C)c6ccc7nccn7c6)c5n4)cn3)c2)c(O)cc1O [OZD-MET 04, 2-{2-[(3-{[1-[2,4-dihydroxy-5-isopropylphenyl]-N-methylformamido]methyl}phenyl)formamido]ethoxy}ethyl 4-[3-(1-{imidazole[1,2-a]pyridin-6-yl}ethyl)-[1,2,3]triazolo[4,5-b]pyrazin-5-yl]pyrazole-1-carboxylate] | 3 (degradation < 10%: 3) | 2 (10% < degradation < 50%: 2) | – | – | 4.18 | 4.65 | – |
| CC(C)c1cc(C(=O)N(C)Cc2cccc(C(=O)NCCOCCOC(=O)Nc3ccc4nccc(Oc5ccc(NC(=O)C6(C(=O)Nc7ccc(F)cc7)CC6)cc5)c4c3)c2)c(O)cc1O [OZD-MET 06, 2-{2-[(3-{[1-(2,4-dihydroxy-5-isopropylphenyl)-N-methylformamido]methyl}phenyl)formamido]ethoxy}ethyl N-[4-(4-{1-[(4-fluorophenyl)carbamoyl]cyclopropanamido}phenoxy)quinolin-6-yl)carbamate] | 2 (10% < degradation < 50%: 2) | 2 (10% < degradation < 50%: 2) | – | – | 3.38 | 4.25 | – |
| CC(C)c1cc(C(=O)N(C)Cc2ccc(C(=O)NCCCCC(=O)Nc3ccc4nccc(Oc5ccc(NC(=O)C6(C(=O)Nc7ccc(F)cc7)CC6)cc5)c4c3)cc2)c(O)cc1O [OZD-MET 07, N′1-{4-[(6-{5-[(4-{[1-(2,4-dihydroxy-5-isopropylphenyl)-N-methylformamido]methyl}phenyl)formamido]pentanamido}quinolin-4-yl)oxy]phenyl}-N1-(4-fluorophenyl)cyclopropane-1,1-dicarboxamide] | 2 (10% < degradation < 50%: 2) | 1 (50% < degradation: 1) | – | – | 3.43 | 3.21 | – |
| CC(C)c1cc(C(=O)N(C)Cc2cccc(C(=O)NCCOCCOC(=O)Nc3ccc(-c4cnc5ncc(Cc6ccc7ncccc7c6)n5n4)cc3F)c2)c(O)cc1O [OZD-MET 08, 2-{2-[(3-{[1-(2,4-dihydroxy-5-isopropylphenyl)-N-methylformamido]methyl}phenyl)formamido]ethoxy}ethyl N-{2-fluoro-4-[7-(quinolin-6-ylmethyl)imidazo[1,2-b][1,2,4]triazin-2-yl]phenyl}carbamate] | 2 (10% < degradation < 50%: 2) | 1 (50% < degradation: 1) | – | – | 3.08 | 4.34 | – |
| CC(C)c1cc(C(=O)N(C)Cc2ccc(C(=O)NCCCCC(=O)Nc3ccc(-c4cnc5ncc(Cc6ccc7ncccc7c6)n5n4)cc3F)cc2)c(O)cc1O [OZD-MET 09, N-[(4-{[4-({2-fluoro-4-[7-(quinolin-6-ylmethyl)imidazo[1,2-b][1,2,4]triazin-2-yl]phenyl}carbamoyl)butyl]carbamoyl}phenyl)methyl]-2,4-dihydroxy-5-isopropyl-N-methyl-benzamide] | 1 (50% < degradation: 1) | 2 (10% < degradation < 50%: 2) | – | – | 4.18 | 3.11 | – |
| CC(C)c1cc(C(=O)N(C)Cc2cccc(C(=O)NCCOCCOC(=O)N3CCC(COc4cnc(-c5cccc(Cn6nc(-c7cccc(C#N)c7)ccc6=O)c5)nc4)CC3)c2)c(O)cc1O [OZD-MET 10, 2-{2-[(3-{[1-(2,4-dihydroxy-5-isopropylphenyl)-N-methylformamido]methyl}phenyl)formamido]ethoxy}ethyl 4-({[2-(3-{[3-(3-cyanophenyl)-6-oxopyridazin-1-yl]methyl}phenyl)pyrimidin-5-yl]oxy}methyl)piperidine-1-carboxylate] | 1 (50% < degradation: 1) | 1 (50% < degradation: 1) | – | – | 3.19 | 3.29 | – |

— patent publication US20260207754A1, “MET PROTEIN DEGRADATION INDUCING COMPOUND” (ONCOZEN CO., LTD., priority 2022, published 2026)
